Test results from patent US12187729B2, “Compounds having PDE9A inhibitory activity, and pharmaceutical uses thereof” (KOREA RESEARCH INSTITUTE OF CHEMICAL TECHNOLOGY, priority 2018, dated 2025).

molecular target: PDE9A (Homo sapiens (Human), UniProt O76083); experiment: PDE9A inhibitory activity, fluorescence polarization assay (IMAP-FP screening express kit); format: biochemical; conditions: enzyme PDE9A 5 ng/ml, Fl-cGMP substrate 100 nM, room temperature 1 hour
Experimental: The inhibitory activity of the representative compounds according to the present invention against phosphodiesterase 9A was tested based on the polarization assay (IMAP-FP screening express kit) provided by MDS (MDS Analytical Technologies, Sunyvale, CA, USA). As a buffer solution, a reaction solution (a reaction solution containing 0.01% Tween 20 provided by MDS was diluted 5 times, then 5 mM DTT is added) and a polarization detection solution (binding solution A and B provided by MDS were mixed at a ratio of 3:1 and IMAP binding reagent 1/600 was added) were prepared. 100 μM of the substrate (Fl-cGMP substrate; MDS) and 3.6 μg/ml of the enzyme PDE9A (ab54113; abeam) were prepared. 3.6 μg/ml PDE9A and 100 μM substrate were diluted to 20 ng/ml (final reaction concentration: 5 ng/ml) and 400 nM (final reaction concentration: 100 nM), respectively. The buffer solution used for all dilution and preparation processes was 1× reaction solution with 1 mM DTT added, and the polarization detection solution was used to induce polarization at the end.
The prepared samples were dispensed on black microplates (Multiwell 384 well plates, #3573, Corning Life Sciences, Lowell, MA, USA) using a 16-channel pipette (multi 16-channel, Finnpipette, Thermo Scientific, Essex, UK). The total reaction volume per well is 20 μl. At this time, 10 μl of 2% DMSO, 5 μl of substrate solution, and 5 μl of reaction solution were used as a negative control, and 10 μl of 2% DMSO, 5 μl of substrate solution, and 5 μl of PDE9A solution were used as a positive control. As the experimental group, 10 μl of the compound prepared in Example, 5 μl of the substrate solution, and 5 μl of the PDE9A solution were used. After pretreatment between the compound and the enzyme was performed for about […] before the enzyme-substrate reaction, 5 μl of cGMP was added to induce the enzyme reaction. During the reaction, each compound, enzyme, and substrate occupied 50%, 25%, and 25% of the total volume, respectively, and they were prepared at high concentrations of 2, 4, and 4 times, respectively, immediately before addition. After the enzymatic reaction, it was shaken lightly for 1 minute and the enzyme reaction was induced at room temperature for 1 hour. Then, 60 μl of a polarization detection solution prepared in advance was added to induce polarization.
Nanoparticles composed of trivalent metal ions are mixed in the fluorescence detection solution, which combines with phosphoric acid expose by enzymatic reaction to increase the molecular weight and induce polarization. After leaving for 2 hours at room temperature, the polarization (Fluorescence Polarization, FP) value was measured using a multilabel counter (Envision, PerkinElmer, Turku, Finland) (emission wavelength: P-535 nm, S-535 nm, excitation wavelength: 480 nm), and the result was expressed as an IC50 value, which is the concentration of the compound that inhibited PDE9A by 50% in vitro (Table 2).

Sequence of PDE9A (O76083 whole entry): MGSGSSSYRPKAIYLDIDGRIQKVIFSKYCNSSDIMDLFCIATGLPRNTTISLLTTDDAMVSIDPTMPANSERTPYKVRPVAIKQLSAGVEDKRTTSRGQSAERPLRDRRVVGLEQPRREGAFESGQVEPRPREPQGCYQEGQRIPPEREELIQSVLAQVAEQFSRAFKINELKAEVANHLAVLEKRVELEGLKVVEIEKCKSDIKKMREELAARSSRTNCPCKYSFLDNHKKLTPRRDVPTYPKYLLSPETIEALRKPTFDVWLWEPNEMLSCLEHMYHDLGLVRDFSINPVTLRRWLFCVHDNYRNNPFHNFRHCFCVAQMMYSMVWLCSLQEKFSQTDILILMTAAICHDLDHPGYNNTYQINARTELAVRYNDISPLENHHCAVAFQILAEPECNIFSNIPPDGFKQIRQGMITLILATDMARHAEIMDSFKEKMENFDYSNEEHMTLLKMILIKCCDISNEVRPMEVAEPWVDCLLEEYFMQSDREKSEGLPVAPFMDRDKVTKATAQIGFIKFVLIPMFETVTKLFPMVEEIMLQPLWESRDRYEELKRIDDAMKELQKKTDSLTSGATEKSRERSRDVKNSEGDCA

First: CCSc1nnc(NC(=O)CSc2nc3c(cnn3C3CCOCC3)c(=O)[nH]2)s1 [Example 27, N-(5-(ethylthio)-1,3,4-thiadiazol-2-yl)-2-((4-oxo-1-(tetrahydro-2H-pyran-4-yl)-4,5-dihydro-1H-pyrazolo[3,4-d]pyrimidin-6-yl)thio)acetamide]
Second: N-(5-(methylthio)-1,3,4-thiadiazol-2-yl)-2-((4-oxo-1-phenyl-4,5-dihydro-1H-pyrazolo[3,4-d]pyrimidin-6-yl)thio)acetamide [Example 13]
The IC50 of the first is 58-fold lower: 0.5 nM for the first, 29 nM for the second. The first is the more potent here.

Compared with CCSc1nnc(NC(=O)CSc2nc3c(cnn3C3CCCCC3)c(=O)[nH]2)s1 [Example 34, N-(5-(ethylthio)-1,3,4-thiadiazol-2-yl)-2-((4-oxo-1-cyclohexyl-4,5-dihydro-1H-pyrazolo[3,4-d]pyrimidin-6-yl)thio)acetamide], O=C(CSc1nc2c(cnn2-c2ccccc2)c(=O)[nH]1)Nc1nnc(-c2ccc(F)cc2)s1 [Example 23, N-(5-(4-fluorophenyl)-1,3,4-thiadiazol-2-yl)-2-((4-oxo-1-phenyl-4,5-dihydro-1H-pyrazolo[3,4-d]pyrimidin-6-yl)thio)acetamide] is 10-fold higher in IC50: 1 nM for the first, 10 nM for the second.

Compared with CC(Sc1nc2c(cnn2C2CCC(F)(F)CC2)c(=O)[nH]1)C(=O)Nc1nnc(Br)s1 (stereo not drawn) [Example 31, 2-((1-(4,4-difluorocyclohexyl)-4-oxo-4,5-dihydro-1H-pyrazolo[3,4-d]pyrimidin-6-yl)thio)-N-(5-bromo-1,3,4-thiadiazol-2-yl)propanamide], O=C(CSc1nc2c(cnn2-c2ccc(F)cc2)c(=O)[nH]1)Nc1nnc(Br)s1 [Example 17, N-(5-bromo-1,3,4-thiadiazol-2-yl)-2-((1-(4-fluorophenyl)-4-oxo-4,5-dihydro-1H-pyrazolo[3,4-d]pyrimidin-6-yl)thio)acetamide] is 270-fold higher in IC50: 0.1 nM for the first, 27 nM for the second.
